{
  "source": "ChEMBL document CHEMBL5055643",
  "about": "“Sophoraflavanone G Resensitizes ABCG2-Overexpressing Multidrug-Resistant Non-Small-Cell Lung Cancer Cells to Chemotherapeutic Drugs” (J Nat Prod, 2021)",
  "key": {"[1]": {"system": "NCI-H460", "assay": "Chemo-sensitizing activity against mitoxantrone-selected ABCG2-overexpressing human NCI-H460/MX20 cells assessed as reversal fold at 5 uM measured after 72 hrs in presence of mitoxantrone by CCK8 assay relative to control", "assay_type": "functional"}, "[2]": {"system": "NCI-H460", "assay": "Chemo-sensitizing activity against human NCI-H460 cells assessed as reversal fold at 1 uM measured after 72 hrs in presence of topotecan by CCK8 assay relative to control", "assay_type": "functional"}, "[3]": {"system": "NCI-H460", "assay": "Chemo-sensitizing activity against human NCI-H460 cells assessed as reversal fold at 2 uM measured after 72 hrs in presence of topotecan by CCK8 assay relative to control", "assay_type": "functional"}, "[4]": {"system": "NCI-H460", "assay": "Chemo-sensitizing activity against mitoxantrone-selected ABCG2-overexpressing human NCI-H460/MX20 cells assessed as reversal fold at 5 uM measured after 72 hrs in presence of topotecan by CCK8 assay relative to control", "assay_type": "functional"}, "[5]": {"system": "NCI/ADR-RES", "assay": "Chemo-sensitizing activity against ABCB1-overexpressing human NCI/ADR-RES cells assessed as reversal fold at 1 uM measured after 72 hrs in presence of paclitaxel by CCK8 assay relative to control", "assay_type": "functional"}, "[6]": {"system": "A549", "assay": "Chemo-sensitizing activity against becatecarin-selected ABCG2-overexpressing human A549/Bec150 cells assessed as reversal fold at 1 uM measured after 72 hrs in presence of topotecan by CCK8 assay relative to control", "assay_type": "functional"}, "[7]": {"system": "A549", "assay": "Chemo-sensitizing activity against becatecarin-selected ABCG2-overexpressing human A549/Bec150 cells assessed as reversal fold at 2 uM measured after 72 hrs in presence of topotecan by CCK8 assay relative to control", "assay_type": "functional"}, "[8]": {"system": "A549", "assay": "Chemo-sensitizing activity against human A549 cells assessed as reversal fold at 2 uM measured after 72 hrs in presence of SN-38 by CCK8 assay relative to control", "assay_type": "functional"}, "[9]": {"system": "HEK293", "assay": "Chemo-sensitizing activity against human HEK293 cells assessed as reversal fold at 5 uM measured after 72 hrs in presence of topotecan by CCK8 assay relative to control", "assay_type": "functional"}, "[10]": {"system": "HEK293", "assay": "Chemo-sensitizing activity against ABCG2-overexpressing human HEK293 cells assessed as reversal fold at 5 uM measured after 72 hrs in presence of topotecan by CCK8 assay relative to control", "assay_type": "functional"}, "[11]": {"system": "OVCAR-8", "assay": "Chemo-sensitizing activity against human OVCAR-8 cells assessed as reversal fold at 5 uM measured after 72 hrs in presence of colchicine by CCK8 assay relative to control", "assay_type": "functional"}, "[12]": {"system": "KB-V1", "assay": "Chemo-sensitizing activity against ABCB1-oveexpressing human KB-V1 cells assessed as reversal fold at 1 uM measured after 72 hrs in presence of colchicine by CCK8 assay relative to control", "assay_type": "functional"}, "[13]": {"system": "KB-V1", "assay": "Chemo-sensitizing activity against ABCB1-oveexpressing human KB-V1 cells assessed as reversal fold at 2 uM measured after 72 hrs in presence of colchicine by CCK8 assay relative to control", "assay_type": "functional"}, "[14]": {"system": "HEK293", "assay": "Chemo-sensitizing activity against human HEK293 cells assessed as reversal fold at 1 uM measured after 72 hrs in presence of vincristine by CCK8 assay relative to control", "assay_type": "functional"}, "[15]": {"system": "HEK293", "assay": "Chemo-sensitizing activity against human HEK293 cells assessed as reversal fold at 5 uM measured after 72 hrs in presence of vincristine by CCK8 assay relative to control", "assay_type": "functional"}, "[16]": {"system": "HEK293", "assay": "Chemo-sensitizing activity against ABCB1-overexpressing human HEK293/MDR19 cells assessed as reversal fold at 2 uM measured after 72 hrs in presence of vincristine by CCK8 assay relative to control", "assay_type": "functional"}, "[17]": {"system": "HEK293", "assay": "Chemo-sensitizing activity against ABCB1-overexpressing human HEK293/MDR19 cells assessed as reversal fold at 5 uM measured after 72 hrs in presence of paclitaxel by CCK8 assay relative to control", "assay_type": "functional"}, "[18]": {"target": "T1, ABCG2 (Homo sapiens, UniProt Q9UNQ0)", "T1 sequence (Q9UNQ0 whole entry)": "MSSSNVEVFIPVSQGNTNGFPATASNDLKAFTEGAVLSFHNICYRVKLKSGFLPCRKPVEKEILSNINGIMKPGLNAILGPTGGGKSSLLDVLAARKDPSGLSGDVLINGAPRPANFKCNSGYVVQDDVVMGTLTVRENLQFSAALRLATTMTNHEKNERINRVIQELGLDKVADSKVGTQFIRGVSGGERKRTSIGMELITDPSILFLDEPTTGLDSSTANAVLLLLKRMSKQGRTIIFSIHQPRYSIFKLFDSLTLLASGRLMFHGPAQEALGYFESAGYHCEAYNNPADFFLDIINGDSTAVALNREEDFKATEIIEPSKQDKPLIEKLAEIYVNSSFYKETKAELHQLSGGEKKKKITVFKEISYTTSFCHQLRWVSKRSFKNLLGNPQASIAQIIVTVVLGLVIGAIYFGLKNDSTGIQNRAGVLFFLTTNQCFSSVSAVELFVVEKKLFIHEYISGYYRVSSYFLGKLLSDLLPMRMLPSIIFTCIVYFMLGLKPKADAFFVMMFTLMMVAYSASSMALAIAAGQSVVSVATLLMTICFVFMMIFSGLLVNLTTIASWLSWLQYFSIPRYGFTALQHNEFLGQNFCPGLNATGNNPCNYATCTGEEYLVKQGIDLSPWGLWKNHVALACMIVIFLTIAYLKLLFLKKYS", "assay": "Inhibition of ABCG2 in mitoxantrone-selected ABCG2-overexpressing human NCI-H460/MX20 cells assessed as increase in intracellular mitoxantrone accumulation at 20 uM incubated for 1 hr in presence of mitoxantrone by flow cytometry", "assay_type": "cell-based", "settings": "probe mitoxantrone"}, "[19]": {"system": "A549", "assay": "Effect on ABCG2 protein expression in becatecarin-selected ABCG2-overexpressing human A549/Bec150 cells at 1 to 5 uM incubated for 72 hrs by immunoblot analysis", "assay_type": "functional, cell-based", "settings": "dose 1-5 µM"}},
  "note": "Calls of active or inactive are those of the source. The rule behind the calls is not given here.",
  "data": [
    {"smiles": "C=C(C)[C@H](CC=C(C)C)Cc1c(O)cc(O)c2c1O[C@H](c1ccc(O)cc1O)CC2=O", "note": "[SOPHORAFLAVANONE G]", "values": [
      {"measurement": "fold change (FC)", "setting": "[1]", "value": 7.6},
      {"measurement": "fold change (FC)", "setting": "[2]", "value": 1.6},
      {"measurement": "fold change (FC)", "setting": "[3]", "value": 2.1},
      {"measurement": "fold change (FC)", "setting": "[4]", "value": 7.8},
      {"measurement": "fold change (FC)", "setting": "[5]", "value": 1},
      {"measurement": "fold change (FC)", "setting": "[6]", "value": 1.7},
      {"measurement": "fold change (FC)", "setting": "[7]", "value": 1.8},
      {"measurement": "fold change (FC)", "setting": "[8]", "value": 1.1},
      {"measurement": "fold change (FC)", "setting": "[9]", "value": 0.8},
      {"measurement": "fold change (FC)", "setting": "[10]", "value": 5},
      {"measurement": "fold change (FC)", "setting": "[11]", "value": 1.1},
      {"measurement": "fold change (FC)", "setting": "[12]", "value": 0.9},
      {"measurement": "fold change (FC)", "setting": "[13]", "value": 0.9},
      {"measurement": "fold change (FC)", "setting": "[14]", "value": 1},
      {"measurement": "fold change (FC)", "setting": "[15]", "value": 0.9},
      {"measurement": "fold change (FC)", "setting": "[16]", "value": 0.9},
      {"measurement": "fold change (FC)", "setting": "[17]", "value": 1.3},
      {"measurement": "inhibition at 1 h, 20 µM", "setting": "[18]", "value": 100, "unit": "%"},
      {"measurement": "Activity", "setting": "[19]", "value": "inactive"}
    ]}
  ]
}
